Data from patent US6818426B2 (Daicel Chemical Industries, Ltd., priority 2000, dated 2004).
Read-outs that look alike come from different tables or passages of the source.

Assays:
[1] = tested on: (R)-2,3-butanediol dehydrogenase; assay: Stereoselectivity of purified (R)-2,3-butanediol dehydrogenase; type: biochemical, Pichia angusta
Description: The enzyme obtained in Example 1 was allowed to react with each of the two isomers 1,2-propanediol and 2,3-butanediol (500 mM each).

[2] = tested on: (R)-2,3-butanediol dehydrogenase; assay: Substrate specificity of purified (R)-2,3-butanediol dehydrogenase (dehydrogenation activity); type: biochemical, Pichia angusta; details: substrate 500 mM; glycerol dehydrogenation activity with NAD+ as coenzyme taken as 100; ND: not detectable
Description: The enzyme obtained in Example 1 was allowed to react with various reagents of 500 mM, and then the dehydrogenation activity was assayed.

[3] = tested on: recombinant (R)-2,3-butanediol dehydrogenase, HB101 (pSE-PAD1) cell extract; assay: Substrate specificity of recombinant enzyme, oxidation reaction; type: biochemical, Pichia angusta; details: for HB101 (pSE-PAD1) Relative activity: glycerol = 100%
Description: The quantification of polypeptide is carried out by a dye-binding method using a protein assay kit from BioRad.
(§1) The bacterial cells were collected by centrifugal separation and then suspended in 100 mM potassium phosphate buffer (pH 8.0) containing 0.02% 2-mercaptoethanol; the bacterial cells were lysed by the treatment with a closed sonic chamber device UCD-200TM (Cosmo Bio) for 4 minutes. The bacterial cell lysate was separated by centrifugation and the resulting supernatant was recovered as a bacterial cell extract.

[4] = tested on: E. coli HB101 cell-free extract prepared in the absence of plasmid; type: biochemical
Description: as §1

[5] = tested on: (R)-2,3-butanediol dehydrogenase; assay: Behavior of (R)-2,3-butanediol dehydrogenase to reagents (residual glycerol dehydrogenase activity); type: biochemical, Pichia angusta; details: for Inhibition of the enzyme by reagent (in words): treated at 30° C. for 10 minutes
Description: After treated with various reagents at 30° C. for 10 minutes, glycerol dehydrogenase activity was assayed.

[6] = target: glycerol dehydrogenase produced by Escherichia coli (Escherichia coli W-1485) (Escherichia coli, UniProt P0A9S5); details: J. Biol. Chem., 259:2124-2129, 1984; cited from earlier work
Chain of glycerol dehydrogenase produced by Escherichia coli (Escherichia coli W-1485) (P0A9S5 whole entry): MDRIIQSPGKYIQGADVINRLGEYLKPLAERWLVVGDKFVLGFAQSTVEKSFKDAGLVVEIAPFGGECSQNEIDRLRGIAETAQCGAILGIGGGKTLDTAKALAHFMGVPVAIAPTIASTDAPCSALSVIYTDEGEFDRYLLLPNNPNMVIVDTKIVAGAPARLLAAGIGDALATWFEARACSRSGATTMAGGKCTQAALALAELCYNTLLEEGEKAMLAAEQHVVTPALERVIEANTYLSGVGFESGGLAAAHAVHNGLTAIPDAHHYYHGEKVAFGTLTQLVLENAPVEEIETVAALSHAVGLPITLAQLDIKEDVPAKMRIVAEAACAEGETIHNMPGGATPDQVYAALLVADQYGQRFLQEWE

[7] = tested on: recombinant (R)-2,3-butanediol dehydrogenase, HB101 (pSE-PAD1) cell extract; assay: Substrate specificity of recombinant enzyme, reduction reaction; type: biochemical, Pichia angusta; details: substrate 20 mM; for HB101 (pSE-PAD1) Relative activity: dihydroxyacetone = 100%
Description: as §1

[8] = tested on: E. coli HB101 cell-free extract prepared in the absence of plasmid; assay: Host only cell-free extract, reduction reaction; type: biochemical; details: substrate 20 mM
Description: as §1

[9] = target: (R)-2,3-butanediol dehydrogenase derived from Saccharomyces cerevisiae (Saccharomyces cerevisiae, UniProt P39714); details: Arch. Microbiol., 154:267-273, 1990; cited from earlier work
Chain of (R)-2,3-butanediol dehydrogenase derived from Saccharomyces cerevisiae (P39714 whole entry): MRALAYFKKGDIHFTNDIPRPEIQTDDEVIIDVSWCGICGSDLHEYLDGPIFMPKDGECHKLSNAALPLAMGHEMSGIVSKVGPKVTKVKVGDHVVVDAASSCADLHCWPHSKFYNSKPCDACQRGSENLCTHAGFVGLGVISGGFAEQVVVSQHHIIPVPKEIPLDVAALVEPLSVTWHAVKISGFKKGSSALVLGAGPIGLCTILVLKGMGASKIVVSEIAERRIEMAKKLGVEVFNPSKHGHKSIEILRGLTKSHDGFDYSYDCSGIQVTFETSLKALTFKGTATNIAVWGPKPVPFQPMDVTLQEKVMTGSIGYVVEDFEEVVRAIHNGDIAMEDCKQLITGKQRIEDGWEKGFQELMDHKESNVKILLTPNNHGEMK

[10] = tested on: (R)-2,3-butanediol dehydrogenase derived from Pichia angusta; assay: Coenzyme usability; type: biochemical; details: NADP+ in oxidation reaction, NADPH in reduction reaction
From the text: However, regardless of the usability of NADP^+ and NADPH, an enzyme having the above-mentioned physicochemical properties (1) to (3), preferably (1) to (6), and even more preferably (1) to (9) is included in the present invention.

[11] = oxidation reaction, substrate 50 mM
[12] = oxidation reaction, substrate 100 mM
[13] = reagent 1 mM, 30° C. for 10 minutes, glycerol dehydrogenase activity

C[C@H](O)CO [(S)-2,3-propanediol]
Relative activity [1]: 160%

CC(O)CCO (centres unmarked) [1,3-butanediol]
Relative activity [2]: 58%

OC[C@@H](O)CCl [(R)-3-chloro-1,2-propanediol]
HB101 (pSE-PAD1) activity ([3]; substrate 50 mM): 0.002 U/mg
HB101 (pSE-PAD1) Relative activity ([3]; substrate 50 mM): 0.9%
Host only activity [4, 11]: 0 U/mg

[Cl][Ni][Cl] [nickel chloride]
Residual activity [5]: 99%

O=C(O)c1cc[c]([Hg][Cl])cc1 [PCMB, p-chloromercuribenzoic acid]
Residual activity ([5]; reagent 0.1 mM, 30° C. for 10 minutes, glycerol dehydrogenase activity): 0%
Inhibition of the enzyme by reagent (in words) [5]: markedly inhibited

C[C@@H](O)[C@@H](C)O [(2R,3R)-2,3-butanediol]
HB101 (pSE-PAD1) activity ([3]; substrate 50 mM): 1.414 U/mg
HB101 (pSE-PAD1) Relative activity ([3]; substrate 50 mM): 620%
Host only activity [4, 11]: 0 U/mg
Vmax [6]: 28.0 U/mg protein

(S)-1-amino-2-propanol
HB101 (pSE-PAD1) activity ([3]; substrate 50 mM): 0.018 U/mg
HB101 (pSE-PAD1) Relative activity ([3]; substrate 50 mM): 8.0%
Host only activity [4]: 0.007 U/mg

CCC(O)CO (racemic) [(RS)-1,2-butanediol]
HB101 (pSE-PAD1) activity ([3]; substrate 100 mM): 0.200 U/mg
HB101 (pSE-PAD1) Relative activity ([3]; substrate 100 mM): 87.6%
Host only activity [4, 12]: 0.002 U/mg

[Cl][Hg][Cl] [mercury chloride]
Residual activity [5, 13]: 0%
Inhibition of the enzyme by reagent (in words) [5]: markedly inhibited

[Cl-].[Li+] [lithium chloride]
Residual activity [5, 13]: 101%

C[C@H](O)CO [(S)-1,2-propanediol]
Relative activity [1]: 400%
HB101 (pSE-PAD1) activity ([3]; substrate 50 mM): 0.246 U/mg
HB101 (pSE-PAD1) Relative activity ([3]; substrate 50 mM): 108%
Host only activity [4, 11]: 0 U/mg

C[C@H](O)[C@H](C)O [(2S,3S)-2,3-butanediol]
HB101 (pSE-PAD1) activity ([3]; substrate 50 mM): 0.059 U/mg
HB101 (pSE-PAD1) Relative activity ([3]; substrate 50 mM): 26.1%
Host only activity [4, 11]: 0 U/mg

O=C(O)c1cc(SSc2ccc([N+](=O)[O-])c(C(=O)O)c2)ccc1[N+](=O)[O-] [DTNB, 5,5′-dithiobis (2-nitrobenzoic acid)]
Residual activity [5, 13]: 59%

CC(=O)C(C)O (centres unmarked) [3-hydroxy-2-butanone]
HB101 (pSE-PAD1) activity ([3]; substrate 50 mM): 0.020 U/mg
HB101 (pSE-PAD1) Relative activity ([3]; substrate 50 mM): 8.8%
HB101 (pSE-PAD1) activity [7]: 0.696 U/mg
HB101 (pSE-PAD1) Relative activity [7]: 71.2%
Host only activity [4, 11]: 0.006 U/mg
Host only activity [8]: 0.009 U/mg

[Cl-].[Cl-].[Zn+2] [zinc chloride]
Residual activity [5]: 113%

CC(O)C(C)O (racemic) [DL-2,3-butanediol]
Vmax [6]: 21.2 U/mg protein
dehydrogenase activity [9]: about 20.3 U/mg protein

CCC(C)=O [2-butanone]
HB101 (pSE-PAD1) activity [7]: 0.008 U/mg
HB101 (pSE-PAD1) Relative activity [7]: 0.8%
Host only activity [8]: 0.002 U/mg

C[C@@H](O)CO [(R)-1,2-propanediol]
Relative activity [1]: 2000%
HB101 (pSE-PAD1) activity ([3]; substrate 50 mM): 1.077 U/mg
HB101 (pSE-PAD1) Relative activity ([3]; substrate 50 mM): 473%
Host only activity [4, 11]: 0 U/mg

OC[C@H](O)CCl [(S)-3-chloro-1,2-propanediol]
HB101 (pSE-PAD1) activity ([3]; substrate 50 mM): 0.057 U/mg
HB101 (pSE-PAD1) Relative activity ([3]; substrate 50 mM): 24.8%
Host only activity [4, 11]: 0.001 U/mg

O=C(O)CI [iodoacetic acid]
Residual activity [5]: 91%

(R)-1-amino-2-propanol
HB101 (pSE-PAD1) activity ([3]; substrate 50 mM): 0.051 U/mg
HB101 (pSE-PAD1) Relative activity ([3]; substrate 50 mM): 22.2%
Host only activity [4]: 0.007 U/mg

O=C(O)CN(CCN(CC(=O)O)CC(=O)O)CC(=O)O [EDTA, ethylenediaminetetraacetic acid]
Residual activity [5, 13]: 93%
Inhibition of the enzyme by reagent (in words) [5]: not

NNc1ccccc1 [Phenylhydrazine]
Residual activity [5, 13]: 110%

CC(O)CO (centres unmarked) [1,2-propanediol]
Relative activity [2]: 700%

OCC(O)CO [Glycerol]
Relative activity [2]: 100%
Relative activity ([1]; substrate 500 mM, activity to glycerol taken as 100): 100%
HB101 (pSE-PAD1) activity ([3]; substrate 100 mM): 0.228 U/mg
HB101 (pSE-PAD1) Relative activity ([3]; substrate 100 mM): 100%
Host only activity [4, 12]: 0 U/mg

(R)-2-butanol
HB101 (pSE-PAD1) activity ([3]; substrate 50 mM): 0.022 U/mg
HB101 (pSE-PAD1) Relative activity ([3]; substrate 50 mM): 9.6%
Host only activity [4]: 0 U/mg

manganese chloride
Residual activity [5]: 105%

C[C@H](O)CCO [(S)-1,3-butanediol]
HB101 (pSE-PAD1) activity ([3]; substrate 50 mM): 0.042 U/mg
HB101 (pSE-PAD1) Relative activity ([3]; substrate 50 mM): 18.3%
Host only activity [4, 11]: 0 U/mg

[Cl][Cu][Cl] [copper chloride]
Residual activity [5, 13]: 0%
Inhibition of the enzyme by reagent (in words) [5]: markedly inhibited

NC(=O)C1=CN([C@@H]2O[C@H](COP(=O)(O)OP(=O)(O)OC[C@H]3O[C@@H](n4cnc5c(N)ncnc54)[C@H](OP(=O)(O)O)[C@@H]3O)[C@@H](O)[C@H]2O)C=CC1 [NADPH]
Usability as a coenzyme (in words) [10]: substantially impossible

C[C@@H](O)CCO [(R)-1,3-butanediol]
HB101 (pSE-PAD1) activity ([3]; substrate 50 mM): 0.259 U/mg
HB101 (pSE-PAD1) Relative activity ([3]; substrate 50 mM): 114%
Host only activity [4, 11]: 0 U/mg

[Cl-].[Cl-].[Mg+2] [magnesium chloride]
Residual activity [5]: 105%

[Ba+2].[Cl-].[Cl-] [barium chloride]
Residual activity [5]: 112%

CCC(O)CO (centres unmarked) [1,2-butanediol]
Relative activity [2]: 130%

c1ccc(-c2ccccn2)nc1 [2,2′-dipyridyl]
Residual activity [5, 13]: 0%
Inhibition of the enzyme by reagent (in words) [5]: markedly inhibited

[Cl][Co][Cl] [cobalt chloride]
Residual activity [5, 13]: 102%

CC(=O)C(C)=O [2,3-butanedion]
HB101 (pSE-PAD1) activity [7]: 1.906 U/mg
HB101 (pSE-PAD1) Relative activity [7]: 195%
Host only activity [8]: 0.018 U/mg

(S)-2-butanol
HB101 (pSE-PAD1) activity ([3]; substrate 50 mM): 0.024 U/mg
HB101 (pSE-PAD1) Relative activity ([3]; substrate 50 mM): 10.7%
Host only activity [4]: 0 U/mg

CC(=O)CCO [4-hydroxy-2-butanone]
HB101 (pSE-PAD1) activity [7]: 0.011 U/mg
HB101 (pSE-PAD1) Relative activity [7]: 1.1%
Host only activity [8]: 0.006 U/mg

CC(O)C(C)O (centres unmarked) [2,3-butanediol]
Relative activity [2]: 3030%

CC(=O)CO [Hydroxyacetone]
HB101 (pSE-PAD1) activity [7]: 0.364 U/mg
HB101 (pSE-PAD1) Relative activity [7]: 37.2%
Host only activity [8]: 0 U/mg

[Cl][Fe][Cl] [iron (II) chloride]
Residual activity [5, 13]: 163%

[Ca+2].[Cl-].[Cl-] [calcium chloride]
Residual activity [5]: 105%

C[C@@H](O)CO [(R)-2,3-propanediol]
Relative activity [1]: 6100%

CC(O)C(C)O (stereo not drawn) [Meso-2,3-butanediol]
HB101 (pSE-PAD1) activity ([3]; substrate 50 mM): 1.163 U/mg
HB101 (pSE-PAD1) Relative activity ([3]; substrate 50 mM): 509%
Host only activity [4, 11]: 0 U/mg

NC(=O)c1ccc[n+]([C@@H]2O[C@H](COP(=O)([O-])OP(=O)(O)OC[C@H]3O[C@@H](n4cnc5c(N)ncnc54)[C@H](OP(=O)(O)O)[C@@H]3O)[C@@H](O)[C@H]2O)c1 [NADP^+]
Usability as a coenzyme (in words) [10]: substantially impossible

c1cnc2c(c1)ccc1cccnc12 [o-phenanthroline]
Residual activity [5, 13]: 0%
Inhibition of the enzyme by reagent (in words) [5]: markedly inhibited

[Cl][Fe]([Cl])[Cl] [iron (III) chloride]
Residual activity [5, 13]: 0%
Inhibition of the enzyme by reagent (in words) [5]: markedly inhibited
